Test results published in ChEMBL document CHEMBL1201862, “PubChem BioAssay data set” (2004).
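Tested at 5 concentrations; 48 h exposure; 96-well plates; endpoints linearly interpolated, else capped at highest concentration. At the GI50, growth is halved.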 Calls of active or inactive are those of the source. Rule as the data show it: active = GI50 up to about 1.1 µM and inactive = higher.

What was measured:
Experiment in all cases: NCI tumour cell line growth inhibition, 48 h
CAKI-1 = system: CAKI-1
HCC 2998 = system: HCC 2998
HL-60 = system: HL-60
K562 = system: K562
LOX IMVI = system: LOX IMVI
MDA-MB-231 = system: MDA-MB-231
MDA-MB-435 = system: MDA-MB-435
MDA-N = system: MDA-N
NCI-H226 = system: NCI-H226
NCI-H23 = system: NCI-H23
NCI/ADR-RES = system: NCI/ADR-RES
OVCAR-4 = system: OVCAR-4
OVCAR-5 = system: OVCAR-5
SF-268 = system: SF-268
SF-539 = system: SF-539
SNB-19 = system: SNB-19
SNB-75 = system: SNB-75
SR = system: SR
UACC-257 = system: UACC-257
UO-31 = system: UO-31

Compound: CCCCc1c(OC)cc(O)c2c1C(=O)c1[nH]c(C(=O)O)c(O)c(=O)c1C2=O
- GI50 (CAKI-1): 13.2 µM (inactive)
- GI50 (HCC 2998): 19.8 µM (inactive)
- GI50 (HL-60): 1.56 µM (inactive)
- GI50 (K562): > 100 µM (inactive)
- GI50 (LOX IMVI): 4.01 µM (inactive)
- GI50 (MDA-MB-231): 0.847 µM (active)
- GI50 (MDA-MB-435): 5.56 µM (inactive)
- GI50 (MDA-N): 17.2 µM (inactive)
- GI50 (NCI-H226): 5.57 µM (inactive)
- GI50 (NCI-H23): 2.81 µM (inactive)
- GI50 (NCI/ADR-RES): 4.18 µM (inactive)
- GI50 (OVCAR-4): 18.3 µM (inactive)
- GI50 (OVCAR-5): 4.9 µM (inactive)
- GI50 (SF-268): 1.95 µM (inactive)
- GI50 (SF-539): 0.499 µM (active)
- GI50 (SNB-19): 2.25 µM (inactive)
- GI50 (SNB-75): 3.26 µM (inactive)
- GI50 (SR): 6.93 µM (inactive)
- GI50 (UACC-257): 10.4 µM (inactive)
- GI50 (UO-31): 1.73 µM (inactive)

Compound: COc1cc2c(cc1OC)C(C1CC1)ON(C)CC2 (stereo not given)
- GI50 (CAKI-1): > 100 µM (inactive)
- GI50 (HCC 2998): > 100 µM (inactive)
- GI50 (HL-60): > 100 µM (inactive)
- GI50 (K562): > 100 µM (inactive)
- GI50 (LOX IMVI): > 100 µM (inactive)
- GI50 (MDA-MB-231): > 100 µM (inactive)
- GI50 (MDA-MB-435): > 100 µM (inactive)
- GI50 (MDA-N): > 100 µM (inactive)
- GI50 (NCI-H226): > 100 µM (inactive)
- GI50 (NCI-H23): > 100 µM (inactive)
- GI50 (NCI/ADR-RES): > 100 µM (inactive)
- GI50 (OVCAR-4): > 100 µM (inactive)
- GI50 (OVCAR-5): > 100 µM (inactive)
- GI50 (SF-268): > 100 µM (inactive)
- GI50 (SF-539): > 100 µM (inactive)
- GI50 (SNB-19): > 100 µM (inactive)
- GI50 (SNB-75): > 100 µM (inactive)
- GI50 (SR): > 100 µM (inactive)
- GI50 (UACC-257): > 100 µM (inactive)
- GI50 (UO-31): > 100 µM (inactive)

Compound: O=c1c2cc(I)ccc2nc(Sc2ccc([N+](=O)[O-])cc2[N+](=O)[O-])n1Cc1ccccc1
- GI50 (CAKI-1): 2.64 µM (inactive)
- GI50 (HCC 2998): 2.92 µM (inactive)
- GI50 (HL-60): 1.83 µM (inactive)
- GI50 (K562): 1.78 µM (inactive)
- GI50 (LOX IMVI): 1.46 µM (inactive)
- GI50 (MDA-MB-231): 5.22 µM (inactive)
- GI50 (MDA-MB-435): 1.82 µM (inactive)
- GI50 (MDA-N): 1.52 µM (inactive)
- GI50 (NCI-H226): 2.74 µM (inactive)
- GI50 (NCI-H23): 3.02 µM (inactive)
- GI50 (NCI/ADR-RES): 1.83 µM (inactive)
- GI50 (OVCAR-4): 2.49 µM (inactive)
- GI50 (OVCAR-5): 9.02 µM (inactive)
- GI50 (SF-268): 1.6 µM (inactive)
- GI50 (SF-539): 2.25 µM (inactive)
- GI50 (SNB-19): 6.65 µM (inactive)
- GI50 (SNB-75): 3.91 µM (inactive)
- GI50 (SR): 0.394 µM (active)
- GI50 (UACC-257): 4.65 µM (inactive)
- GI50 (UO-31): 2.26 µM (inactive)

Compound: O=C1CC(NCCCNC2CC(=O)c3c(Br)sc(Br)c32)c2c(Br)sc(Br)c21 (stereo not given)
- GI50 (CAKI-1): 2.03 µM (inactive)
- GI50 (HCC 2998): 1.99 µM (inactive)
- GI50 (HL-60): 1.38 µM (inactive)
- GI50 (K562): 0.879 µM (active)
- GI50 (LOX IMVI): 1.4 µM (inactive)
- GI50 (MDA-MB-231): 2.19 µM (inactive)
- GI50 (MDA-MB-435): 1.39 µM (inactive)
- GI50 (MDA-N): 1.79 µM (inactive)
- GI50 (NCI-H226): 3.78 µM (inactive)
- GI50 (NCI-H23): 1.83 µM (inactive)
- GI50 (NCI/ADR-RES): 2.16 µM (inactive)
- GI50 (OVCAR-4): 2.93 µM (inactive)
- GI50 (OVCAR-5): 2.21 µM (inactive)
- GI50 (SF-268): 2.54 µM (inactive)
- GI50 (SF-539): 2.47 µM (inactive)
- GI50 (SNB-19): 2.45 µM (inactive)
- GI50 (SNB-75): 2.48 µM (inactive)
- GI50 (SR): 0.798 µM (active)
- GI50 (UACC-257): 2.92 µM (inactive)
- GI50 (UO-31): 1.42 µM (inactive)

Compound: CC(=O)Nc1ccc(-c2nc3cc(Cl)ccc3o2)cc1
- GI50 (CAKI-1): > 50 µM (inactive)
- GI50 (HCC 2998): 40.1 µM (inactive)
- GI50 (HL-60): 40.9 µM (inactive)
- GI50 (K562): > 50 µM (inactive)
- GI50 (LOX IMVI): > 50 µM (inactive)
- GI50 (MDA-MB-231): > 50 µM (inactive)
- GI50 (MDA-MB-435): > 50 µM (inactive)
- GI50 (MDA-N): > 50 µM (inactive)
- GI50 (NCI-H226): 24.5 µM (inactive)
- GI50 (NCI-H23): > 50 µM (inactive)
- GI50 (NCI/ADR-RES): > 50 µM (inactive)
- GI50 (OVCAR-4): > 50 µM (inactive)
- GI50 (OVCAR-5): > 50 µM (inactive)
- GI50 (SF-268): > 50 µM (inactive)
- GI50 (SF-539): > 50 µM (inactive)
- GI50 (SNB-19): > 50 µM (inactive)
- GI50 (SNB-75): 32.5 µM (inactive)
- GI50 (SR): > 50 µM (inactive)
- GI50 (UACC-257): > 50 µM (inactive)
- GI50 (UO-31): > 50 µM (inactive)
